In test [1] the target is T1, human PAI-1 (Homo sapiens, UniProt P05121). Briefly: Measurement of PAI-1 inhibitory activity of compound group 1 (t-PA, S-2288 chromogenic substrate). The settings on record: read-out: PAI-1 activity %.
In test [2] the target is T1, human PAI-1. Briefly: Measurement of PAI-1 inhibitory activity of compound group 2 (t-PA, S-2288 chromogenic substrate). The settings on record: PAI-1 activity of the system without compound after 30 minutes taken as 100%.
The target in test [3] is T1, human PAI-1. Briefly: Measurement of PAI-1 inhibitory activity of compound group 3 (t-PA, S-2288 chromogenic substrate; Table 4).
The test system of test [4] is hematopoietic stem cells. Briefly: Hematopoietic recovery after bone-marrow transplantation, compounds a, b, c (Experimental Example 5). The format is in vivo, mice. The settings on record: compound a 100 mg/kg oral 4 days; compounds b and c 10 mg/kg oral 6 consecutive days after bone-marrow transplantation. How it is done:
The procedures of Experimental Examples 4 (1) and 4 (4) were repeated using compounds b and c, instead of compound a, as a test compound.
Compound a was orally administered in an amount of 100 mg/kg for 4 consecutive days after bone-marrow transplantation. Compounds b and c were orally administered in an amount of 10 mg/kg for 6 consecutive days after bone-marrow transplantation.
Bone marrow was collected 1 and 3 weeks after bone-marrow transplantation. The total number of the whole bone-marrow cells (FIG. 9E), the proportion (%) of LSK-CD34 negative cells in the whole bone marrow (FIG. 9A), the total number of LSK-CD34 negative cells in the whole bone marrow (FIG. 9B), the proportion (%) of Lin-SLAM cells in the whole bone marrow (FIG. 9C), and the total number of Lin-SLAM cells in the whole bone marrow (FIG. 9D) were measured. The results are shown in the above-stated figures.

The next test concerns CML cells. As to the kind of experiment: Chronic myelogenous leukemia model mice, imatinib with compound d or compound e (Experimental Example 17). Format: in vivo. The settings on record: imatinib 150 mg/kg/day + compound d or compound e 10 mg/kg/day via gavage, day 8 to day 14. How it is done:
Group 1: placebo group (physiological saline was administered via gavage)
Group 2: imatinib group (imatinib [150 mg/kg/day] was administered via gavage)
Group 3: imatinib+compound d group (imatinib [150 mg/kg/day] and compound d [10 mg/kg/day] were administered via gavage)
Group 4: imatinib+compound e group (imatinib [150 mg/kg/day] and compound e [10 mg/kg/day] were administered via gavage)
8 days after (day 8) the day (day 0) on which CML cells were intravenously inoculated, administration of test drugs to the groups was started. The placebo group and the imatinib group were administered the respective test drugs once a day from day 8 to day 14 (7 doses in total). The imatinib+compound d group and imatinib+compound e group were administered imatinib once a day from day 8 to day 14 (7 doses in total), and also administered compound d or e once a day from day 8 to day 14 (7 doses in total).

Test [5] concerns the target T1, human PAI-1. As to the kind of experiment: Measurement of PAI-1 inhibitory activity of compound group 1 (t-PA, Spectrozyme t-PA chromogenic substrate). The settings on record: read-out: PAI-1 activity %.
The subject of test [6] is hematopoietic stem cells. Briefly: Frequency and absolute number of hematopoietic stem cells after bone-marrow transplantation (Experimental Example 8 (1)). Format: in vivo, mice. The settings on record: 1 and 3 weeks after bone-marrow transplantation; compared with control group. How it is done:
In accordance with the procedure of Experimental Example 7 (1), bone marrow was transplanted, and tPA or compound a was administered in the same manner as in Experimental Example 7. Physiological saline was administered to a control group. 1 and 3 weeks after bone-marrow transplantation, 12 mice of each group were measured for the number of bone-marrow mononucleic cells (BM MNC), the frequency and absolute number of Lin-SLAM cells, and the frequency and absolute number of LSK-CD34 negative cells.

Test [7] relates to hematopoietic stem cells. As to the kind of experiment: Cell cycle (Ki-67, BrdU) and apoptosis (Annexin V) of bone-marrow cells 1 week after bone-marrow transplantation (Experimental Example 9). Format: in vivo, mice. How it is done: In accordance with Experimental Example 7 (1), bone-marrow transplantation was conducted, and after the transplantation, physiological saline (control group), tPA (tPA-administered group), or compound a (compound a-administered group) was administered.
1 week after bone-marrow transplantation, the bone marrow was collected, and Ki-67 protein, which is a cell division marker, was immunostained with anti-Ki-67-FITC antibody (BD Bioscience) to analyze the cells in the cell-division cycle by FACSCalibur.
Subsequently, the number of Ki-67 positive cells in the cells of LSK fraction was examined to confirm that the proliferation of hematopoietic stem cells is promoted by compound a.
In addition, to more accurately detect the cells that moved to the S phase, 5-bromo-2-deoxyuridine (BrdU)-FITC (BD Pharmingen) was administered to the control group, tPA group, and compound a-administered group 1 week after bone-marrow transplantation, 3 hours before the collection of bone marrow. 6 mice were used for each group.
Because BrdU is a thymine derivative, BrdU, substituting for thymine, is incorporated into genomic DNA or the like during DNA replication. BrdU more specifically reflects the S phase than Ki-67 protein.
1 week after bone-marrow transplantation, bone marrow was collected from the control group, tPA group, and compound a-administered group (6 mice for each group), and Annexin V, which appears specifically in apoptosis, was detected with anti-Annexin V antibody immunostaining.

Test [8] concerns hematopoietic stem cells. Briefly: Fibrinolytic pathway activation and bone-marrow regeneration after lethal radiation (9Gy) and bone-marrow transplantation, compound a versus recombinant tPA (Experimental Example 7).
The test system of test [9] is hematopoietic stem cells. Briefly: Bone-marrow transplanted mice, compound c, G-CSF and G-CSF neutralizing antibody (Experimental Example 13). Format: in vivo. The settings on record: G-CSF 150 μg/kg/day. How it is done: Bone-marrow transplanted mice were prepared in the same manner as in Experimental Example 4, and compound c, G-CSF, and G-CSF neutralizing antibody were examined for the effects. Specifically, the bone-marrow transplanted mice were divided into 5 groups as shown below (each group: n=5) and orally administered respective test drugs.
Group 1: vehicle group (physiological saline was administered via gavage) (“v group”)
Group 2: compound c group (compound c [10 mg/kg/day] was administered via gavage) (“TM group”)
Group 3: G-CSF group (G-CSF [150 μg/kg/day] was administered via gavage) (“G group”)
Group 4: vehicle+anti-G-CSF group (physiological saline+G-CSF neutralizing antibody [500 μg/kg/day] was administered via gavage) (“v+Ab group”)
Group 5: compound c+anti-G-CSF group (compound c [500 μg/kg/day]+G-CSF neutralizing antibody [500 μg/kg/day] was administered via gavage) (“TM+Ab group”)
Concurrently with bone-marrow transplantation, administration of physiological saline (vehicle) to the vehicle group via gavage was started, and the administration continued for 5 consecutive days. Concurrently with bone-marrow transplantation, administration of compound c (10 mg/kg/day) to the compound c group via gavage was started, and the administration continued for 5 consecutive days. Concurrently with bone-marrow transplantation, subcutaneous administration of G-CSF (150 μg/kg/day) to the G-CSF group was started, and the administration continued for 5 consecutive days. Concurrently with bone-marrow transplantation, gavage administration of physiological saline and subcutaneous administration of G-CSF neutralizing antibody (R&D) (500 μg/kg/day) to the vehicle+anti-G-CSF group were started, and the administration continued for 5 consecutive days. Concurrently with bone-marrow transplantation, gavage administration of compound c (10 mg/kg/day) and intraperitoneal administration of G-CSF neutralizing antibody (R&D) (500 μg/kg/day) to the compound c+anti-G-CSF group were started, and the administration continued for 5 consecutive days.
1 week after bone-marrow transplantation, plasma and bone-marrow fluids were collected from mice of each group (v group, TM group, G group, v+Ab group, and TM+Ab group), and the G-CSF concentration (pg/ml) was measured by ELISA. The following were determined in accordance with an ordinary procedure: (B) G-CSF concentration (pg/ml) in bone-marrow fluids, (C) total number of mononucleic cells (×10E7 cell) in the bone marrow, (D) proportion (%) of LSK CD34 negative cells in the bone marrow, (E) total number of LSK CD34 negative cells in the bone marrow, (F) proportion (%) of Lin-SLAM cells in the bone marrow, and (G) total number of Lin-SLAM cells in the bone marrow.

Where [10] appears, read: tPA group compared with control group, compound a group compared with tPA group.

T1 sequence (P05121 24-402): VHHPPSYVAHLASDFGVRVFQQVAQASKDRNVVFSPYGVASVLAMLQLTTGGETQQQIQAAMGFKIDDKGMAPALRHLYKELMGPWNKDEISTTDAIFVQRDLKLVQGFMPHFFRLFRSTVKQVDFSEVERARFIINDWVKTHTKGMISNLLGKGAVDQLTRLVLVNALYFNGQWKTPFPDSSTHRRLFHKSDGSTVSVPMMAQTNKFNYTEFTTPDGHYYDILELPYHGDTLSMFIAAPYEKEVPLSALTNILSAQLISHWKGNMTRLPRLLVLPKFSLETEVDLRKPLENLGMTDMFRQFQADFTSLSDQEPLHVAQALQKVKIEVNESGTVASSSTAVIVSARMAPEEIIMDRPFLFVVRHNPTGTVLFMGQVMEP

On to `O=C([O-])c1cc(Cl)ccc1NC(=O)C1CCCN(C(=O)c2cccc(-c3ccoc3)c2)C1.[Na+]` (stereo not drawn) [Example 11, sodium 5-chloro-2-{[(1-{[3-(furan-3-yl)phenyl]carbonyl}piperidin-3-yl)carbonyl]amino}benzoate], for which the activity at 20 µM at human PAI-1 [1] came to 68.2%. The activity at 50 µM on human PAI-1 [1] turned out to be 26.1%. The PAI-1 activity % stood at 99.3% on human PAI-1 [2] (compound 50 μM), 20.7% on human PAI-1 [2] (compound 100 μM), 64.7% at human PAI-1 [3] (compound concentration 20 μM) and 11.5% at human PAI-1 [3] (compound concentration 50 μM).
Turning to `O=C(Nc1cccc(-c2ccoc2)c1)C(=O)Nc1ccc(Cl)cc1C(=O)O` [Example 45 (compound group 3), 5-chloro-2-{[{[3-(furan-3-yl)phenyl]amino}(oxo)acetyl]amino}benzoic acid], in the test on hematopoietic stem cells [4], the “frequency of hematopoietic stem cells” value is “increase” and the “self-renewal capacity of hematopoietic stem cells” value is listed as “enhance”.
In the case of `O=C(COCC(=O)Nc1ccc(Cl)cc1C(=O)O)Nc1cccc(-c2ccco2)c1` [Example 61 (compound group 3), 5-chloro-2-{[(2-{[3-(furan-2-yl)phenyl]amino}-2-oxoethoxy)acetyl]amino}benzoic acid], the survival entry in the test on CML cells is reported as “some mice survived even after day 40”.
On to `O=C(Nc1ccc(Cl)cc1C(=O)[O-])c1ccc(-c2cccc3cccnc23)cc1.[Na+]` [Example 67, sodium 5-chloro-2-({[4-(quinolin-8-yl)phenyl]carbonyl}amino)benzoate], for which the PAI-1 activity % at human PAI-1 [2] (compound 20 μM) turned out to be 99.8%; at human PAI-1 [2] (compound 50 μM), 75.0%; on human PAI-1 [3] (compound concentration 20 μM), 57.6%; at human PAI-1 [3] (compound concentration 50 μM), 8.1%. Besides, the activity at 2.5 µM on human PAI-1 [5] came out at 90.4%. Further, the activity at 10 µM on human PAI-1 [5] is 0.6%.
On to `O=C(Nc1ccc(Cl)cc1C(=O)[O-])c1cccc(-c2cccc3cccnc23)c1.[Na+]` [Example 68, sodium 5-chloro-2-({[3-(quinolin-8-yl)phenyl]carbonyl}amino)benzoate], for which the PAI-1 activity % is listed as 99.8% at human PAI-1 [2] (compound 20 μM), 66.3% at human PAI-1 [2] (compound 50 μM), 20.7% at human PAI-1 [3] (compound concentration 20 μM) and 9.4% at human PAI-1 [3] (compound concentration 50 μM). Further, at human PAI-1 [5], the activity at 2.5 µM came out at 2.4%. In addition, the activity at 10 µM at human PAI-1 [5] was found to be 2.1%.
On to “tPA: recombinant tPA (tissue-type plasminogen activator), Eisai Co., Ltd”, for which, in the test on hematopoietic stem cells [6], the “number of bone-marrow mononucleic cells” value is recorded as “slightly larger”. In addition, in the test on hematopoietic stem cells [7] (compared with control group), the “proportion of cells that were induced apoptosis (Annexin V)” value was “decrease”. Also, the “cells in the S phase (BrdU incorporated into LSK cells)” value in the test on hematopoietic stem cells [7] (control group 18.1%) worked out at 18.8%. In addition, in the test on hematopoietic stem cells [7] (control group 43.3%), the “Ki-67 positive, cells classified into the LSK fraction taken as 100%” value was determined as 50.7%. In addition, the “cell count of cells at the S-G2-M phase (Ki-67) in bone-marrow mononucleic cells” value with hematopoietic stem cells [7] (control group 44.2%) is 50.8%. For the same molecule, the “cell count of cells at the G0/G1 phase (Ki-67) in bone-marrow mononucleic cells” value in the test with hematopoietic stem cells [7] (control group 55.8%) is on record as 49.2%. Further, in the test on hematopoietic stem cells [8] (2 days after bone-marrow transplantation, among control, tPA and compound a groups), the “level of active tPA in plasma” value is reported as “highest level”. In addition, in the test with hematopoietic stem cells [8] (compound a or recombinant tPA 100 mg/kg, 5 consecutive days, 2 and 7 days after bone-marrow transplantation), the “expression of active PAI-1 in the plasma” value is on record as “lower than that of the control group”. The “survival rate on day 28 from bone-marrow transplantation” value in the test with hematopoietic stem cells [8] (lethal radiation 9Gy, 100 mg/kg, 5 consecutive days, n=15, control group 20%) was found to be 50%. In addition, in the test with hematopoietic stem cells [8] (setting [10]), the “platelet count in the peripheral blood” value is “significantly increased” and the “white blood cell count in the peripheral blood” value was “significantly increased”.

B1: G-CSF: granulocyte colony stimulating factor, administered 150 μg/kg/day (protein, UniProt P09919 31-207, looked up)
Granulocyte …: TPLGPASSLPQSFLLKCLEQVRKIQGDGAALQEKLVSECATYKLCHPEELVLLGHSLGIPWAPLSSCPSQALQLAGCLSQLHSGLFLYQGLLQALEGISPELGPTLDTLQLDVADFATTIWQQMEELGMAPALQPTQGAMPAFASAFQRRAGGVLVASHLQSFLEVSYRVLRHLAQP
Take B1: the “proportion and number of Lin-SLAM cells” value in the test with hematopoietic stem cells [9] (single agents: TM (compound c) 10 mg/kg/day, G-CSF neutralizing antibody 500 μg/kg/day with vehicle, versus vehicle group) is “increased”. Besides, the “G-CSF concentration in the plasma and bone-marrow fluids” value with hematopoietic stem cells [9] (single agents: compound c 10 mg/kg/day gavage, G-CSF neutralizing antibody 500 μg/kg/day with vehicle, 1 week after transplantation, versus vehicle) was “significant increases”. In the test on hematopoietic stem cells [9] (single agents: compound c 10 mg/kg/day, G-CSF neutralizing antibody 500 μg/kg/day with vehicle, versus vehicle group), the “proportion and number of LSK CD34 negative cells” value is on record as “increased”. In addition, the “number of BM MNC” value in the test with hematopoietic stem cells [9] (single agents: compound c 10 mg/kg/day, versus vehicle group) is reported as “more increased”.

Values taken from patent publication US10092537B2, “Use for PAI-1 inhibitor” (RENASCIENCE CO., LTD., priority 2013, dated 2018).
